Experimental data as given in the METLIN SMRT retention time set (Domingo-Almenara et al. 2019).

Assay: gradient 5% acetonitrile 3 min, to 50% in 2 min, to 85% in 15 min, held 3 min, 100 µL/min
Conditions: column: Zorbax Extend-C18 2.1 x 50 mm; eluents: water / acetonitrile, 0.1% formic acid
Outline: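 Pure standards were run in mixtures of ~100 molecules by HPLC coupled to a quadrupole time-of-flight mass spectrometer. The column was a Zorbax Extend-C18 (2.1 × 50 mm, 1.8 μm) at 100 μL/min, with water and acetonitrile each containing 0.1% formic acid, in positive and negative ionization mode. Dead and dwell volumes were 40 μL and 900 μL. Retention time was taken from computationally picked adduct peaks, each manually inspected, with data collected over 3 months.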

Row | Compound | RP-LC retention time [s]
1 | CCCNC(=O)C1CCN(c2nccnc2Sc2cccc(C)c2)CC1 | 946
2 | CNC(=O)c1cccn1Cc1ccc(F)cc1 | 791
3 | COc1ccc(N2CCN(c3ncc4c(n3)CCN(Cc3cccc(F)c3)C4)CC2)cc1 | 648
4 | CC(=O)Nc1nc(-c2ccc3c(c2)NC(=O)CO3)cs1 | 633
5 | Cc1oc(-c2[nH]ncc2C(=O)N2CCCC2)cc1S(=O)(=O)N1CCN(C)CC1 | 574
6 | CCOC(=O)c1noc2nc(C)nc(Nc3ccc(F)cc3)c12 | 962
7 | CCCC(=O)Nc1ccc(CCc2nc3ccc(C(=O)NCCOC)cc3[nH]2)cc1 | 599
8 | CC1CCCC(C)N1CCCNC(=O)c1cc2sccc2n1Cc1ccc(Cl)cc1 (centres undefined) | 783
9 | CCc1cccc(C)c1NC(=O)Cn1cnc2nc(N3CCCC(C(=O)NC)C3)sc2c1=O (centres undefined) | 672
10 | O=C(NCC1CCOCC1)c1c[nH]c2ccccc12 | 636
11 | C#CCSc1nc2sc(C)c(C)c2c(=O)n1C | 983
12 | CCn1c(N2CCN(C(=O)Nc3cc(OC)cc(OC)c3)CC2)nc2ccccc21 | 660
13 | CCN1CCN(c2cc(-c3ccc(F)cc3)c3c(n2)CCCCCC3)CC1 | 765
14 | Cc1cc(Cl)ccc1S(=O)(=O)N1CCn2c(nn(CC3CC3)c2=O)C1 | 872
15 | CN1CCc2nnc(C3CCCN3C(=O)Nc3cc(Cl)cc(Cl)c3)n2CC1 (centres undefined) | 566
16 | Cc1ccc(-c2cc(C(=O)NCCN(C)C)n(C)c2)cc1 | 657
17 | CC(C)N1C(=O)c2cccnc2Sc2cc(C(=O)N3CCN(C)CC3)ccc21 | 582
18 | CCCn1ccc2sc(C)c(C(=O)NCc3ccc(F)cc3Cl)c2c1=O | 1000
19 | O=C(N[C@H]1C[C@@H]2C[C@H]1CN2C(=O)Cc1c(F)cccc1Cl)c1cccs1 | 710
20 | CC1(C(=O)NC2CCCCC2)CN(S(=O)(=O)c2ccccc2)CC(=O)N1c1ccc(F)cc1 (centres undefined) | 959
21 | O=C(Cc1nnc(-c2ccsc2)o1)N1CCc2ccccc2C1 | 780

Row | Compound | RP-LC retention time [s]
22 | Cc1cc(C(=O)N2CCOCC2)c2cccc(Cl)c2n1 | 682
23 | CCC(CC)NCCOC(=O)c1ccc([N+](=O)[O-])cc1 | 705
24 | CN(c1nccn2c(=O)n(CC(=O)Nc3ccc4c(c3)OCO4)nc12)C1CCCCC1 | 716
25 | CCCN(CC1CCOC1)C(=O)Nc1ccccc1 (centres undefined) | 575
26 | CCOC(=O)c1cc(NC(=O)Nc2cccc(OC)c2)c(C)nc1C | 701
27 | CCOC(=O)c1c(NCCC(C)C)c2ccc(Cl)cc2[nH]c1=O | 900
28 | O=C(N[C@@H]1CN(c2ccncn2)C[C@H]1CO)c1nccc2ccccc12 | 581
29 | COc1ccccc1N1CCN(C(=O)C2CCCN(c3ncnc4c3nc3n4CCCCC3)C2)CC1 (centres undefined) | 766
30 | O=C(NCCc1csc(-c2ccccc2)n1)[C@H]1CCCN1S(=O)(=O)c1cccc2nsnc12 | 888
31 | Cc1cccc(-c2nnc(SCC(=O)N3CCC(C)CC3)o2)c1 | 969
32 | CC1CCCCN1CCNC(=O)c1c2c(cn(-c3ccc(Cl)cc3)c1=O)C(=O)CC(C)(C)C2 (centres undefined) | 710
33 | O=S(=O)(Nc1ccc(F)c(F)c1)c1c[nH]c2ncccc12 | 739
34 | CCSc1nnc(NC(=O)CNC(=O)c2c[nH]c3ccccc23)s1 | 669
35 | O=C(NCCn1nnc2cc(C(=O)N3CCCC3)ccc21)Nc1ccccc1Cl | 892
36 | CCn1cnc(S(=O)(=O)N2CCC(C(=O)Nc3nc4ccc(OC)cc4s3)CC2)c1 | 748
37 | Cc1ccc(F)cc1NC(=O)Cn1cnc2nc(N3CCCC(C(=O)NC(C)C)C3)sc2c1=O (centres undefined) | 712
38 | CCOC(=O)c1c(S(=O)(=O)N2CCC(C(=O)Nc3cccc(OC)c3)CC2)c(C)n(CC)c1C | 891
39 | CCC1Oc2ccc(S(=O)(=O)N3CCC(C(=O)NCc4ccc(OC)cc4)CC3)cc2NC1=O (centres undefined) | 839
40 | Cc1nnc2n1CCC(NC(=O)CC1=CCCCC1)CC2 (centres undefined) | 605
41 | Cc1cc(NC(=O)CSc2nc(-c3cccs3)nc3c2c(=O)n(C)c(=O)n3C)no1 | 780
42 | CCn1cc(C(=O)Nc2cccc(OC)c2)c2cccnc21 | 809

Row | Compound | RP-LC retention time [s]
43 | COC(=O)c1ccsc1NC(=O)c1c[nH]c2ccccc12 | 882
44 | COC(=O)C1=CN(c2ccccc2)c2cc(F)c(F)cc2S1(=O)=O | 858
45 | Cc1nn(CC(=O)NC2CCCC2)c(=O)c2cc(-c3ccccc3)nn12 | 852
46 | Cc1nnc(-c2cc(S(=O)(=O)Nc3ccc(S(N)(=O)=O)cc3)c(C)n2C)o1 | 649
47 | Cc1ccc(S(=O)(=O)N2CCc3nc(NC(=O)c4ccnn4C)sc3C2)cc1 | 860
48 | c1ccc(-c2ccc(CNCc3ccc4c(c3)OCO4)o2)cc1 | 698
49 | CC(C)CC(=O)N1CCc2cc(CNS(=O)(=O)Cc3ccccc3)ccc21 | 610
50 | Cc1cc(N2CCN(C(=O)c3ccc(C#N)cc3)CC2)nc2nnc(C)n12 | 582
51 | O=C(NC1CC1)c1ccc(OCC2CCN(C(=O)Cc3cccs3)CC2)cc1 | 780
52 | Cc1cc(N2CCN(C(=O)Nc3cccc(Cl)c3)CC2)nc(N2CCOCC2)n1 | 672
53 | Cc1cc(C)c2c(n1)SCC(=O)N2CC(=O)NCCCN(C)Cc1ccccc1 | 587
54 | Cc1ccccc1CNC(=O)C1(C)CCCN(C(=O)Nc2ccc(F)cc2)C1 (centres undefined) | 899
55 | COc1ccc(NC(=O)[C@@H]2c3ccccc3C(=O)N3CCCC[C@@H]23)c(OC)c1 | 752
56 | Cc1c(C2CCN(C(=O)c3n[nH]c4ccccc34)CC2)noc1N | 643
57 | COc1ccc(CNS(=O)(=O)c2cc3n(c2)CCCNC3=O)cc1 | 641
58 | CCN(CC)CCNC(=O)Cn1ncc2c3ccccc3n(Cc3ccccc3)c2c1=O | 605
59 | CCn1c(CN(C)C(=O)Nc2ccc3c(c2)OCO3)nc2cc(C(=O)N(C)C)ccc21 | 607
60 | CC1=NS(=O)(=O)N(Cc2ccccc2)C=C1C(=O)OCc1ccccc1Cl | 1160
61 | CCCN(CC1CCOC1)C(=O)Nc1cccc(CC)c1 (centres undefined) | 864

More lines, now with the values ahead:

Row | RP-LC retention time [s] | Compound
62 | 870 | CC(C)NC(=O)c1ccc(OCC2CCN(C(=O)Cc3ccccc3F)CC2)cc1
63 | 1090 | Cc1ccc(N2CC(c3noc(-c4cccc(N(C)C)c4)n3)CC2=O)cc1 (centres undefined)
64 | 940 | Cn1nc(-c2nnc(-c3ccccc3)o2)c2c1CCN(S(=O)(=O)c1cc(F)ccc1F)C2
65 | 770 | CCCn1cc(CCNC(=O)Cc2ccccc2Cl)c2cccnc21
66 | 1020 | CCc1nn2c(CNC(=O)c3ccc(F)c(Cl)c3)c(-c3ccccc3)nc2s1
67 | 883 | Cc1ccccc1-c1cn2ccn(-c3ccc(Cl)cc3)c(=O)c2n1
68 | 974 | Cc1nn2c(CNS(=O)(=O)Cc3ccc(C)c(C)c3)c(-c3ccccc3)nc2s1
69 | 925 | COc1ccc(C2=C(C)C(Nc3ccccc3OC)=NS2(=O)=O)cc1
70 | 1030 | COc1ccc(OC)c(CNS(=O)(=O)c2cc(-c3nc(C)c(C)s3)sc2C)c1
71 | 1330 | O=C(c1n[nH]c2ccccc12)N1CCCC1c1nc(-c2cccc(C(F)(F)F)c2)no1 (centres undefined)
72 | 543 | CN1CCN(CCNC(=O)CCc2c(-c3ccc(Br)cc3)nc3ccccn23)CC1
73 | 586 | O=C(CCCSc1ccc(NC(=O)c2ccc(F)cc2)nn1)Nc1cccnc1
74 | 970 | COc1cccc(Cn2ccn3nc(-c4ccc5c(c4)OCO5)cc3c2=O)c1
75 | 664 | Clc1ccc(Cl)c(-c2ccc(CNCc3cccnc3)o2)c1
76 | 713 | Cc1ccc(-c2nnc(-c3nc(NCCN4CCCC4)c4ccccc4n3)o2)cc1
77 | 1100 | Cc1cccc(-c2noc(Cn3c(=O)n(-c4ccc(Cl)cc4)c(=O)c4sccc43)n2)c1
78 | 952 | COc1ccc(-c2nc3cnccn3c2Nc2cc(C)cc(C)c2)cc1
79 | 753 | CC(C)C(=O)Nc1ccc(-n2cnc(C(=O)NCc3ccc(F)cc3)c2)nc1
80 | 659 | COc1ccc(CN2C[C@@H]3C(=O)N(Cc4ccc5c(c4)OCO5)C(=O)[C@@H]3C2)cc1OC
81 | 926 | CCc1nc(-c2cccc(NC(=O)c3cncc(Br)c3)c2)no1
82 | 932 | COc1cccc(Cc2nc(-c3cccc(-c4ccn[nH]4)c3)no2)c1
83 | 849 | Fc1ccccc1-c1nc2ccn(Cc3ccc(-c4ccc(C(F)(F)F)cc4C(F)(F)F)nn3)cc-2n1
84 | 1100 | CCOC(=O)c1noc2nc(C)nc(NCc3ccccc3OC)c12
85 | 1010 | COc1cccc(-c2noc(CCn3nc(-c4ccc(Cl)cc4)ccc3=O)n2)c1OC
86 | 911 | COc1ccccc1N1CCN(C(=O)c2ccc(OCc3nc(C4CC4)cs3)cc2)CC1
87 | 748 | COc1ccc(N2CCN(c3cc(SCC(=O)NCc4ccco4)ncn3)CC2)cc1
88 | 618 | COCCc1noc(C2Cc3ccccc3N2C(=O)NCc2cccc(OC)c2)n1 (centres undefined)
89 | 856 | CN(CCc1noc(COc2ccc(Cl)cc2)n1)C(=O)c1ccco1
